Measurements as given in US12636372B2, “Immolative cell-penetrating complexes for nucleic acid delivery to the lung” (The Board of Trustees of the Leland Stanford Junior …, priority 2019, dated 2026).

Test: In vitro toxicity assay: MTT proliferation assay
Assay type: cell-based
Details: 3 day incubation
Description: FIGS. 3A-3F show the in vitro reporter and toxicity assays.

For `NCCCC[C@H](NCCO)C(=O)O` [hydroxyethyl lysine], the Cellular viability was “not affected”.
